# In ChEMBL document CHEMBL1201862, “PubChem BioAssay data set” (2004):
# Active and inactive are the calls of the source.
# What was measured:
# [1] = Shn3 3'UTR reporter inhibitors, dose response, cell-based, Clone20 osteoblasts, firefly luciferase, cherry-picked (AID 624132); format: functional;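 further: firefly luciferase luminescence from reporter carrying the Shn3 3'UTR in osteoblasts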
# [2] = HepG2 cell cytotoxicity, dose response, cytotoxicity control for Shn3 inhibitor project, CellTiter-Glo, cherry-picked (AID 624134); format: functional, cell-based
# [3] = control 3'UTR Renilla luciferase suppression, dose response, counter-screen for Shn3 inhibitor project, cell-based, Clone20-Shn3RL, cherry-picked (AID 624133); format: functional
# Fatty acid synthase [4] = biological target: T1, Fatty acid synthase (Homo sapiens, UniProt P49327); assay: FAS thioesterase domain inhibitors, dose response, biochemical, endpoint fluorescence intensity, uHTS hits (AID 624327); format: functional;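 further: fluorescence from hydrolysis of an O-methyl fluorescein acyl ester substrate by the enzyme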
# Fatty acid synthase [5] = biological target: T1, Fatty acid synthase; assay: FAS thioesterase domain inhibitors, dose response, biochemical, kinetic fluorescence intensity (AID 624326); format: functional;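 further: rate of fluorescence rise from hydrolysis of a fluorogenic O-methyl fluorescein ester substrate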
# [6] = growth suppression of PTEN-null colon cells, dose response, cell-based, HCT116 PTEN knockout (AID 1047); format: functional;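 further: HCT116 colon tumor cells with PTEN knocked out; cells exposed to compound for 60 hours before readout; potency for loss of cell viability measured by luminescence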
# [7] = growth suppression of beta-catenin-knockout colon cells, dose response, cell-based, HCT116, human colon tumor (AID 1045); format: functional;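 further: HCT116 colon tumor cells with beta catenin knocked out; cells exposed to compound for 60 hours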
# BJ [8] = assay: cytotoxicity toward BJ-TERT fibroblasts, dose response, cell-based, RAS-independent, luminescence (AID 1933); format: functional; conditions: Homo sapiens
# BJ [9] = assay: cells; format: functional, cell-based; conditions: Homo sapiens
# BJ [10] = assay: cytotoxicity toward BJ-TERT-LT-ST fibroblasts, dose response, cell-based, RAS-independent, luminescence (AID 1935); format: functional; conditions: Homo sapiens;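 further: BJ fibroblasts immortalized with TERT plus LT and ST oncogenes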
# [11] = cytotoxicity toward DRD oncogenic fibroblasts, dose response, cell-based, non-viral oncogenic, luminescence (AID 1934); format: functional; conditions: Homo sapiens
# [12] = biological target: FAD-linked sulfhydryl oxidase ALR (Homo sapiens, UniProt P55789); assay: inhibitors of human ALR sulfhydryl oxidase, dose response, biochemical, H2O2 detection, luminescence, cherry-pick (AID 493248)
# INS1 = assay: beta cell apoptosis inhibitors, cytokine rescue, dose response, luminescence, retest (AID 449756); format: functional, cell-based; conditions: Rattus norvegicus;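 further: cell death triggered by IL-1 beta plus TNF-alpha plus IFN-gamma mixture; protective hits raise ATP signal compared with cytokine alone wells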
# [13] = inhibitors of firefly luciferase expression or activity, dose response, H4 neuroglioma cells, luminescence (AID 1990); format: functional, cell-based
# [14] = inhibitors of SNCA 5'UTR-driven reporter translation, confirmation, H4 neuroglioma cells, luminescence (AID 1988); format: functional, cell-based
# [15] = Luminescence Cell-Based Dose Response HTS to Identify Inhibitors of 5'UTR Stem-Loop Driven Prion Protein mRNA Translation in H4 Neuroglioblastoma Cells. [Related pubchem assays: 1827 (Project Summary), 1813 (Primary HTS)]; format: functional
# P388/ADR = assay: cells; format: functional; conditions: Mus musculus
# SN12K1 = assay: cells; format: functional; conditions: Homo sapiens
# P388 = assay: cells; format: functional; conditions: Mus musculus
# [16] = intracellular Trypanosoma cruzi inhibitors in host cells – cell-based, plate reader, cherry-pick samples, set 3, dose response (AID 651818); format: functional;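 further: compounds incubated with infected cells for about four days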
# T1 sequence (P49327 whole entry, the tested form may be a part): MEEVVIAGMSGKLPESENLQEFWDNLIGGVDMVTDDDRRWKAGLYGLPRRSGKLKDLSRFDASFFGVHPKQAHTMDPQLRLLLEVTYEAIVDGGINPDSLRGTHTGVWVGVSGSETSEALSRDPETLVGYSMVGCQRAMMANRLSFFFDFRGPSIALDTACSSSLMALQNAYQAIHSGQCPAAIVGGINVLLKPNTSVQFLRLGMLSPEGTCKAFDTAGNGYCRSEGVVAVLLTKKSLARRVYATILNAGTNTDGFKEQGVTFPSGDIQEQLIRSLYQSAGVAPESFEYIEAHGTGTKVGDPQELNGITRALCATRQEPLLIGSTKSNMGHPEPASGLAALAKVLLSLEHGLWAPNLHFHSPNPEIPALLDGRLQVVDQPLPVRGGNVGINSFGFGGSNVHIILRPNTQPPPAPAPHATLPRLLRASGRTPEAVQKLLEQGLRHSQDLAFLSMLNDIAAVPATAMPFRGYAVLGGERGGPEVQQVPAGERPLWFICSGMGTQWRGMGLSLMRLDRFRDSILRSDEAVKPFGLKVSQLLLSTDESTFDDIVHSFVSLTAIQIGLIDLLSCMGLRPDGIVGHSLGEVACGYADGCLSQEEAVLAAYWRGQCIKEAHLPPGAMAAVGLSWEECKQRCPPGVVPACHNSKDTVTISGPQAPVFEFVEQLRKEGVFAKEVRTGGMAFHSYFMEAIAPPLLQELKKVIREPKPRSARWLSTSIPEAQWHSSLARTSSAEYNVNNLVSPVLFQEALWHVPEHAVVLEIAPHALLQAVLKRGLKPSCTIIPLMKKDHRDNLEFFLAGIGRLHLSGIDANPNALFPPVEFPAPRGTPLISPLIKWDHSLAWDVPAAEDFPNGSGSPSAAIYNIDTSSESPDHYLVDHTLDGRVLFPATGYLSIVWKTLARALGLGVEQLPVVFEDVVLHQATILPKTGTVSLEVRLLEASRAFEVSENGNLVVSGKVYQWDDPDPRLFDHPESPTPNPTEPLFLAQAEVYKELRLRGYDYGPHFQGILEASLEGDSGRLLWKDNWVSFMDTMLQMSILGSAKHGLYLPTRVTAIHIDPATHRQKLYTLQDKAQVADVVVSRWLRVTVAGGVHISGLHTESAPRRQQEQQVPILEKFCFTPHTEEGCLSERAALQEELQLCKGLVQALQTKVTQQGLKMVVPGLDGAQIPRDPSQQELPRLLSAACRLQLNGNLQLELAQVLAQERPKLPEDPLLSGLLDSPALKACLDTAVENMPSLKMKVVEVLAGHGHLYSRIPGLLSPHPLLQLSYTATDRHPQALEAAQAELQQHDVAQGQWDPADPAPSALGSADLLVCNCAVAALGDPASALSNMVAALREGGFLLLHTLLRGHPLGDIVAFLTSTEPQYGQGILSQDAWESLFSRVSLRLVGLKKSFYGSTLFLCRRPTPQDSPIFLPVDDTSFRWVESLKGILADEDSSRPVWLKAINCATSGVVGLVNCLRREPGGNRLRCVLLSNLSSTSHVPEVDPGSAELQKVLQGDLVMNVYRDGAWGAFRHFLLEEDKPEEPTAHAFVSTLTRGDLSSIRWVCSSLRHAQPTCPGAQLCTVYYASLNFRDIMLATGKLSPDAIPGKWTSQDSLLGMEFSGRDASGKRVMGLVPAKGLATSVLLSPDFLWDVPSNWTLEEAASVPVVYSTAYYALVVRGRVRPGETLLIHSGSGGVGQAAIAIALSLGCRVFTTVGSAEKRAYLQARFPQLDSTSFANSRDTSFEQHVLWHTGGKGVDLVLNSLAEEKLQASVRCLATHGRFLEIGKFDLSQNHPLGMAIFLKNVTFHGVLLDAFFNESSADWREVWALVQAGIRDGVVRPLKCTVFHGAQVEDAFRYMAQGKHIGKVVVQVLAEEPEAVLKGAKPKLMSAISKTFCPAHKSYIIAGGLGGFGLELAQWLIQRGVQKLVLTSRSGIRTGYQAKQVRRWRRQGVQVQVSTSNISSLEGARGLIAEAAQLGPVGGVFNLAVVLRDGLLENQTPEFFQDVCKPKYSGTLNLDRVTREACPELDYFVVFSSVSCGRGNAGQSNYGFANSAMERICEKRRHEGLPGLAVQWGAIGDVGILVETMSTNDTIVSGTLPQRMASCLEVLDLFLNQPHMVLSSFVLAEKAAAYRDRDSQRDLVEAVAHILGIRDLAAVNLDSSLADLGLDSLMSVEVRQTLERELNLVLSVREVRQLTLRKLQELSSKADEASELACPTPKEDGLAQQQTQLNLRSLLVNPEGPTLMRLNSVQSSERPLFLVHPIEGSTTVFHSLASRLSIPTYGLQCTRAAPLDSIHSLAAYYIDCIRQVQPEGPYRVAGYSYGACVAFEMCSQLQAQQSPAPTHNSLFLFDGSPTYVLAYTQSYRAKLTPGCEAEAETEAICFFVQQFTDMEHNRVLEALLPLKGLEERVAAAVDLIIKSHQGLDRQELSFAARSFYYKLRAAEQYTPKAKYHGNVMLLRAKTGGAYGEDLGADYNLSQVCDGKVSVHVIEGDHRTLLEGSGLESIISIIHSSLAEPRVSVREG
# FAD-linked sulfhydryl oxidase ALR, sequence (P55789 whole entry): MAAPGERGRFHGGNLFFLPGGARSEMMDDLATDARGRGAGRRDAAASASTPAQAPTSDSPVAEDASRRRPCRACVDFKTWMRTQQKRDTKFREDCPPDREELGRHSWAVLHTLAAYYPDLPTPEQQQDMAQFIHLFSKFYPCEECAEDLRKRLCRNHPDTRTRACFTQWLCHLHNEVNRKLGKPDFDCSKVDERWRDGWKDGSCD
compound,measurement,setting,value
O=C(Nc1ccc(F)c(F)c1)c1ccc(F)c(S(=O)(=O)N2CCC3(CC2)OCCO3)c1,AC50,[1],12.2 µM (active)
same,AC50,[2],42.3 µM (active)
same,AC50,[3],11.2 µM (active)
COc1cccc(NC(C)C(=O)Nc2cc([N+](=O)[O-])ccc2Cl)c1 (configuration not stated),IC50,Fatty acid synthase [4],9.92 µM (active)
same,IC50,Fatty acid synthase [5],12.4 µM (active)
CC(C)(C)c1ccc(OCCC(=O)OCC(=O)N2c3ccccc3NC(=O)C2(C)C)cc1,IC50,Fatty acid synthase [4],11.2 µM (active)
same,IC50,Fatty acid synthase [5],4.48 µM (active)
O=C(/C=C/c1cccc([N+](=O)[O-])c1)NCCSCc1ccc(Cl)cc1,IC50,Fatty acid synthase [4],10.2 µM (active)
same,IC50,Fatty acid synthase [5],11.6 µM (active)
COc1ccccc1/C=C(\NC(=O)c1ccc(OC)c(OC)c1)C(=O)Nc1cc([N+](=O)[O-])ccc1C,EC50,[6],43.6 µM (active)
same,EC50,[7],44.4 µM (active)
same,IC50,Fatty acid synthase [4],2.16 µM (active)
same,IC50,Fatty acid synthase [5],3.48 µM (active)
O=Cc1cccnc1SCc1ccccc1,EC50,BJ [8],10.5 µM (active)
same,EC50,BJ [9],16.3 µM (active)
same,EC50,BJ [10],11.1 µM (inconclusive)
same,EC50,[11],21.3 µM (active)
COc1cccc(CNn2cnnc2)c1O,AC50,[12],2.23 µM (active)
Cc1ccc(C)c(NC(=O)CN(C)C(=O)c2cccc(S(=O)(=O)N3CCN(Cc4ccccc4)CC3)c2)c1,AC50,[1],3.5 µM (active)
same,AC50,[2],62.2 µM (active)
same,AC50,[3],5.74 µM (active)
C=CCNc1nc(N2CCOCC2)c(C#N)c2c1CN(C)CC2,AC50,[1],> 70 µM (inactive)
same,AC50,[3],28.2 µM (active)
Cc1ccc(S(=O)(=O)N2CCN(c3ncnc4ccccc34)CC2)cc1,AC50,INS1,4.61 µM (active)
same,AC50,[1],1.56 µM (active)
same,AC50,[2],4.03 µM (active)
same,AC50,[3],13.7 µM (active)
O=C(Nc1ccc(Cl)cn1)c1cccc(F)c1,EC50,BJ [8],18.4 µM (active)
same,EC50,BJ [9],35.6 µM (active)
same,EC50,BJ [10],> 150 µM (inconclusive)
same,EC50,[11],18.4 µM (active)
O=C(C1CCCCC1)N1CCN=C1SCc1cccnc1,AC50,[12],0.097 µM (active)
C=CCNc1nc(N2CCCCC2)c(C#N)c2c1CN(Cc1ccccc1)CC2,AC50,[1],16.8 µM (active)
same,AC50,[2],> 70 µM (inactive)
same,AC50,[3],28.9 µM (active)
COc1ccccc1C(=O)COC(=O)c1cc([N+](=O)[O-])ccc1N1CCOCC1,IC50,Fatty acid synthase [4],5.96 µM (active)
same,IC50,Fatty acid synthase [5],6.45 µM (active)
COc1ccc(C2=NN(C(=O)CSc3nc(=O)n4ccc(C)cc4n3)C(c3ccc(C)cc3)C2)cc1 (configuration not stated),IC50,Fatty acid synthase [4],9.17 µM (active)
same,IC50,Fatty acid synthase [5],8.93 µM (active)
CCCCNC(=O)c1ccc(CS(=O)(=O)c2ccc(C)cc2)o1,AC50,[12],15.6 µM (active)
Cc1ccc2c(c1)C(c1ccccc1)N(C(=O)c1cccc([N+](=O)[O-])c1)CC(=O)N2 (configuration not stated),IC50,Fatty acid synthase [4],2.57 µM (active)
same,IC50,Fatty acid synthase [5],2.53 µM (active)
CSCC[C@H](NC(=O)N1CCn2c1nc1ccccc12)C(=O)NCc1ccco1,AC50,[12],6.97 µM (active)
COc1ccc(C)cc1NC(=O)CNC(c1ccccc1)c1ccc(C)cc1 (configuration not stated),EC50,[13],10.3 µM (active)
same,EC50,BJ [8],2.53 µM (active)
same,EC50,[14],0.205 µM (active)
same,EC50,BJ [9],50.2 µM (inconclusive)
same,EC50,BJ [10],2.79 µM (active)
same,EC50,[11],1.39 µM (active)
COc1ccc(NC2CCCN(C(=O)c3cn(C)c4ccccc34)C2)cc1 (configuration not stated),AC50,[12],3.1 µM (active)
Sc1nc2ccc(Cl)cc2s1,AC50,[12],2.39 µM (active)
COc1cccc(N2CCN(C(=O)c3ccc(C[S+]([O-])c4ccc(Cl)cc4)o3)CC2)c1 (configuration not stated),EC50,[13],4.79 µM (inconclusive)
same,EC50,[15],6.76 µM (active)
same,EC50,[14],0.67 µM (active)
same,AC50,[12],3.44 µM (active)
CCO[C@H]1OC(C(=O)NCc2ccccc2)=C[C@@H](C2CCCCC2)[C@@H]1CCCO,IC50,Fatty acid synthase [4],7.45 µM (active)
same,IC50,Fatty acid synthase [5],11.5 µM (active)
COc1cc(NC(=O)COc2cccc3c2OC(C)(C)C3)cc(OC)c1OC,AC50,[1],4.38 µM (active)
same,AC50,[3],3.03 µM (active)
CC(NC(=O)Cn1cc([N+](=O)[O-])cn1)c1ccc(C(C)(C)C)cc1 (configuration not stated),IC50,Fatty acid synthase [4],4.06 µM (active)
same,IC50,Fatty acid synthase [5],4.54 µM (active)
CCOC(=O)COc1ccccc1/C=C1\CCC(CN(C)C)C1=O (configuration not stated),GI50,P388/ADR,0.436 µM (active)
same,GI50,SN12K1,1.87 µM (inactive)
same,GI50,P388,0.342 µM (active)
CCOC(=O)C(C)NC(=O)N(C)C12CC3CC(CC(C3)C1)C2 (configuration not stated),GI50,P388/ADR,123 µM (inactive)
same,GI50,SN12K1,190 µM (inactive)
same,GI50,P388,52.2 µM (inactive)
CC12CCC3C(CCC4(O)C=CCCC34C=O)C1(O)CC(O)C2c1ccc(=O)oc1 (configuration not stated),GI50,P388/ADR,> 500 µM (inactive)
same,GI50,SN12K1,0.0624 µM (active)
same,GI50,P388,336 µM (inactive)
CN(C)CCNc1c([N+](=O)[O-])cc2c3c(cccc13)C(=O)N(CCN(C)C)C2=O,GI50,P388/ADR,1.87 µM (inactive)
same,GI50,SN12K1,7.83 µM (inactive)
same,GI50,P388,0.925 µM (active)
CC(C)=CCc1c(O)ccc2c1OC1c3ccc(O)c(CC=C(C)C)c3OCC21 (configuration not stated),GI50,P388/ADR,7.31 µM (inactive)
same,GI50,SN12K1,4.92 µM (inactive)
same,GI50,P388,5.55 µM (inactive)
C=CCNC(=O)C(C)C1CCC2(C)C=CC(=O)C(C)=C2C1O (configuration not stated),GI50,P388/ADR,> 100 µM (inactive)
same,GI50,SN12K1,> 100 µM (inactive)
same,GI50,P388,> 100 µM (inactive)
O=C(O)CCC(NC(=O)c1ccc(Nc2cnc3cc(C(F)(F)F)ccc3n2)cc1)C(=O)O (configuration not stated),GI50,P388/ADR,> 100 µM (inactive)
same,GI50,SN12K1,> 100 µM (inactive)
same,GI50,P388,> 100 µM (inactive)
Cc1c(C2=NN=C(/N=N/c3c(O)cccc3O)/C2=C/c2ccccc2)c(=O)n(-c2ccccc2)n1C,GI50,P388/ADR,> 100 µM (inactive)
same,GI50,SN12K1,> 100 µM (inactive)
same,GI50,P388,> 100 µM (inactive)
CC1(CO)C(O)CCC2(C)C1CCC1CC3CC12CCC3(O)CO (configuration not stated),GI50,P388/ADR,0.42 µM (active)
same,GI50,SN12K1,1.16 µM (inactive)
same,GI50,P388,0.394 µM (active)
C[C@@H]1CN([C@@H](C)CO)C(=O)c2cccc(NC(=O)CCCCCC(=O)Nc3ccccc3N)c2O[C@@H]1CN(C)S(=O)(=O)c1ccc(Cl)cc1,AC50,[16],3.26 µM (active)
C[C@@H]1CCCCO[C@@H](CN(C)C(=O)Nc2ccc(C(F)(F)F)cc2)[C@@H](C)CN([C@H](C)CO)C(=O)c2cc(NC(=O)Nc3ccc(C(F)(F)F)cc3)ccc2O1,AC50,[16],3.39 µM (active)
C[C@H]1CN([C@@H](C)CO)C(=O)c2cc(N(C)C)ccc2O[C@@H]1CN(C)C(=O)Nc1ccc(C(F)(F)F)cc1,AC50,[16],5.64 µM (active)
C[C@H]1CN([C@@H](C)CO)C(=O)c2cccc(NC(=O)NC3CCCCC3)c2O[C@H]1CN(C)Cc1ccc(C(=O)Nc2ccccc2N)cc1,AC50,[16],2.74 µM (active)
O=C(N/N=C/c1cc(I)cc(I)c1O)c1ccccn1,AC50,[16],1.12 µM (active)
COc1ccc(S(=O)(=O)N(C)C[C@H]2Oc3ccc(NS(=O)(=O)c4ccc(F)cc4)cc3CC(=O)N([C@H](C)CO)C[C@H]2C)cc1,AC50,[16],8.25 µM (active)
C[C@@H]1CN([C@H](C)CO)C(=O)Cc2cc(NC(=O)Nc3cccc4ccccc34)ccc2O[C@@H]1CN(C)Cc1ccc(Cl)c(Cl)c1,AC50,[16],2.53 µM (active)
C[C@@H]1CN([C@H](C)CO)C(=O)Cc2cc(NS(=O)(=O)c3ccc(F)cc3)ccc2O[C@H]1CN(C)Cc1ccc(C(=O)Nc2ccccc2N)cc1,AC50,[16],3.17 µM (active)
C[C@@H]1CN([C@H](C)CO)C(=O)c2cc(NC(=O)Cc3cn(C)c4ccccc34)ccc2O[C@@H]1CN(C)C(=O)Nc1ccc(C(F)(F)F)cc1,AC50,[16],3.26 µM (active)
Cc1[nH]c2ccccc2c1/C=N/NC(=O)Cc1cccs1,AC50,[12],4.46 µM (active)
O=C(NC1CC1)c1ccc(CSCc2ccccc2Cl)o1,AC50,[12],0.549 µM (active)
CC1(C)S[C@@H]2[C@H](NC(=O)CCC[C@@H](N)C(=O)O)C(=O)N2[C@H]1C(=O)O [ADICILLIN],GI50,P388/ADR,> 50 µM (inactive)
same,GI50,SN12K1,> 50 µM (inactive)
same,GI50,P388,> 50 µM (inactive)
